Measured values published in patent US8217085B2 (priority 2009, dated 2012).
Values joined by “and” are separate entries in the source; they are usually repeats but may differ in a detail not shown here. Identical values can stand only once. Like-named read-outs stand apart in the source and are kept apart here.

How the values were obtained:
[1] = system: ATCC strain 43300 Staphylococcus aureus
Protocol: Additional antibiotic was added every 24 hours.
USP<51> Antimicrobial Effectiveness protocol was used as the template experimental paradigm. […] All concentrations were plated out to the 10^−7 dilutionsto ascertain cfu/ml. […] Additional antibiotic was added at the initial concentration every 24 hours.
ATCC strain 43300 Staphylococcus aureus was streaked out for isolations. An isolated colony was chosen, streaked again and incubated. Isolate was chosen and then diluted to a McFarland standard of one. The estimated value was then taken to inoculate tubes containing growth media and 12, 30 or 60 μg/ml oxacillin with approximately 10^5 cfu/ml. These tubes were incubated and plated for counting cfu.
Material was calculated on a 10 ml volume. Sterile oxacillin was added to each experimental condition to a final concentration of 12, 30 or 60 μg/ml antibiotic.
All tubes were then inoculated with a dilution of the selected ATCC strain 43300 Staphylococcus aureus clone giving a final level of colony forming units of 3.3×10^5/ml (log=5.52). The tubes were incubated at 25° C. and mixed periodically. Antibiotic was re-inoculated every 24 hours at the initial concentration to maintain pressure on the organism. Plating was done at 24, 48, 72, and 120 hours. Each condition was plated by diluting 1 ml of growth material into 9 ml of MLB diluent broth. […] This mixture was serial diluted down to 10^−7 with 1 ml placed in triplicate in a sterile petri dish at each dilution point. 20 mls of TSA was added to each dilution, swirled and allowed to solidify. All dilutions were placed in a 35° C. incubator for 24 to 72 hours. Bacterial colonies on each plate were counted and the average taken then changed into log format. Any cfu/ml observed greater than 3.3×10^5 (log=5.5) were recorded as >3.3×10^5.

[2] = system: ATCC strain 43300 Staphylococcus aureus; format: cell-based
Text: (§1) No colonies were observed, indicating total kill.
as §1

[3] = system: ATCC strain 43300 Staphylococcus aureus; assay: Survival of MRSA in MSM alone, 24 and 48 hours (USP<51> Antimicrobial Effectiveness template); conditions: 5-16% MSM alone, 24 or 48 hour time point
Protocol: USP<51> Antimicrobial Effectiveness protocol was used as the template experimental paradigm. […] All concentrations were plated out to the 10^−7 dilutionsto ascertain cfu/ml.
Material was calculated on a 10 ml volume.
All tubes were inoculated with a dilution of MRSA giving a final level of colony forming units of 2.0×10^5/ml (Log=5.23). The tubes were incubated at 25° C. and mixed periodically. Plating was done at 24 and 48 hours. Each condition was plated by diluting 1 ml of growth material into 9 ml of MLB diluent broth. This mixture was serial diluted down to 10^−7, and 1 ml placed in a sterile petri dish at each dilution point. 20 mls of TSA was added to each dilution, swirled and allowed to solidify. All dilutions were placed in a 35° C. incubator for 24 hours. Bacterial colonies on each plate were counted and colony counts changed into log format. A positive and negative control was ascertained.

[4] = system: ATCC strain 43300 Staphylococcus aureus; remark: listed apart in the source
Protocol: Additional antibiotic was added every 24 hours. The growth periods tested were 24 (FIG. 5), 48, 72, 96 and 120 hours.
USP<51> Antimicrobial Effectiveness protocol was used as the template experimental paradigm. […] All concentrations were plated out to the 10^−7 dilutions to ascertain cfu/ml. […] Additional antibiotic was added at the initial concentration every 24 hours.
ATCC strain 43300 Staphylococcus aureus was streaked out for isolations. An isolated colony was chosen, streaked again and incubated. Isolate was chosen and then diluted to a McFarland standard of one. The estimated value was then taken to inoculate tubes containing growth media and 12, 30 or 60 μg/ml methicillin with approximately 10^5 cfu/ml. These tubes were incubated and plated for counting cfu.
Material was calculated on a 10 ml volume. Sterile methicillin was added to each experimental condition to a final concentration of 12, 30 or 60 μg/ml antibiotic. Lactose Broth positive controls both with and without the 12 μg/ml, 30 μg/ml, 60 μg/ml antibiotic were inoculated with MRSA. […] Tubes were set up in singlet, but plated in triplicate, as described below.
All tubes were then inoculated with a dilution of the selected ATCC strain 43300 Staphylococcus aureus clone giving a final level of colony forming units of 1.49×10^5/ml (log=5.17). The tubes were incubated at 25° C. and mixed periodically. Antibiotic was re-inoculated every 24 hours at the initial concentration to maintain pressure on the organism. Plating was done at 24, 48, 72, and 120 hours. Each condition was plated by diluting 1 ml of growth material into 9 ml of MLB diluent broth. […] This mixture was serial diluted down to 10^−7 with 1 ml placed in triplicate in a sterile petri dish at each dilution point. 20 mls of TSA was added to each dilution, swirled and allowed to solidify. All dilutions were placed in a 35° C. incubator for 24 to 72 hours. Bacterial colonies on each plate were counted and the average taken then changed into log format.

[5] = 12% MSM, 12 μg/ml oxacillin, 24 hours
[6] = 12% MSM, 12 μg/ml oxacillin, 48 hours
[7] = 12% MSM, 30 μg/ml oxacillin, 24 hours
[8] = 12% MSM, 60 μg/ml oxacillin, 24 hours
[9] = 13% MSM, 12 μg/ml oxacillin, 24 hours
[10] = 13% MSM, 12 μg/ml oxacillin, 48 hours
[11] = 13% MSM, 30 μg/ml oxacillin, 24 hours
[12] = 13% MSM, 60 μg/ml oxacillin, 24 hours
[13] = 14% MSM, 12 μg/ml oxacillin, 24 hours
[14] = 14% MSM, 12 μg/ml oxacillin, 48 hours
[15] = 14% MSM, 12 μg/ml oxacillin, 72 hours
[16] = 14% MSM, 30 μg/ml oxacillin, 24 hours
[17] = 14% MSM, 60 μg/ml oxacillin, 24 hours
[18] = 15% MSM, 12 μg/ml oxacillin, 24 hours
[19] = 15% MSM, 12 μg/ml oxacillin, 48 hours
[20] = 15% MSM, 30 μg/ml oxacillin, 24 hours
[21] = 15% MSM, 60 μg/ml oxacillin, 24 hours
[22] = 16% MSM, 12 μg/ml oxacillin, 24 hours
[23] = 16% MSM, 12 μg/ml oxacillin, 48 hours
[24] = 16% MSM, 30 μg/ml oxacillin, 24 hours
[25] = 16% MSM, 60 μg/ml oxacillin, 24 hours

Compound: CS(C)(=O)=O [MSM, methylsulfonylmethane]
- Average Log [1, 5]: 3.85 Log
- survival [1, 5]: 7.0 × 10^3 cfu/ml and 7.3 × 10^3 cfu/ml
- Average Log [1, 6]: 2.8 Log
- survival [1, 6]: 3.6 × 10^2 cfu/ml and 4.0 × 10^2 cfu/ml and 4.2 × 10^2 cfu/ml
- Average Log ([1]; 12% MSM, 12 μg/ml oxacillin, 72 hours): 3.1 Log
- Average Log [1, 7]: 3.59 Log
- survival [1, 7]: 3.9 × 10^3 cfu/ml
- Average Log ([1]; 12% MSM, 30 μg/ml oxacillin, 48 hours): 2.6 Log
- Average Log ([1]; 12% MSM, 30 μg/ml oxacillin, 72 hours): 2.6 Log
- Average Log [1, 8]: 2.86 Log
- survival [1, 8]: 7.3 × 10^2 cfu/ml and 7.1 × 10^2 cfu/ml and 7.5 × 10^2 cfu/ml
- Average Log ([1]; 12% MSM, 60 μg/ml oxacillin, 48 hours): 2.0 Log
- Average Log ([1]; 12% MSM, 60 μg/ml oxacillin, 72 hours): 2.4 Log
- log reduction in the number of cfu/ml ([1]; 12%-16% MSM, 12 μg/ml oxacillin, 72 hours): 1 log
- Average Log [1, 9]: 3.95 Log
- survival [1, 9]: 9.0 × 10^3 cfu/ml and 8.7 × 10^3 cfu/ml and 9.2 × 10^3 cfu/ml
- Average Log [1, 10]: 2.8 Log
- survival [1, 10]: 6.8 × 10^2 cfu/ml and 5.8 × 10^2 cfu/ml
- Average Log ([1]; 13% MSM, 12 μg/ml oxacillin, 72 hours): 2.7 Log
- Average Log [1, 11]: 3.62 Log
- survival [1, 11]: 4.4 × 10^3 cfu/ml and 4.1 × 10^3 cfu/ml and 4.2 × 10^3 cfu/ml
- Average Log ([1]; 13% MSM, 30 μg/ml oxacillin, 48 hours): 2.5 Log
- Average Log ([1]; 13% MSM, 30 μg/ml oxacillin, 72 hours): 1.8 Log
- Average Log [1, 12]: 2.80 Log
- survival [1, 12]: 6.3 × 10^2 cfu/ml and 6.0 × 10^2 cfu/ml
- Average Log ([1]; 13% MSM, 60 μg/ml oxacillin, 48 hours): 1.7 Log
- Average Log ([1]; 13% MSM, 60 μg/ml oxacillin, 72 hours): 1 Log
- Average Log [1, 13]: 4.00 Log
- survival [1, 13]: 1.00 × 10^4 cfu/ml and 1.02 × 10^4 cfu/ml and 1.01 × 10^4 cfu/ml
- Average Log [1, 14]: 1.0 Log
- log reduction in the number of cfu/ml [1, 14]: 4.5 log
- survival [1, 14]: 1.0 × 10^1 cfu/ml and 1.2 × 10^1 cfu/ml and 1.1 × 10^1 cfu/ml
- Average Log [1, 15]: 2.0 Log
- log reduction in the number of cfu/ml [1, 15]: 4.5 log
- Average Log [1, 16]: 3.78 Log
- survival [1, 16]: 6.1 × 10^3 cfu/ml and 6.0 × 10^3 cfu/ml
- Average Log ([1]; 14% MSM, 30 μg/ml oxacillin, 48 hours): 2.5 Log
- Average Log ([1]; 14% MSM, 30 μg/ml oxacillin, 72 hours): 2.2 Log
- Average Log [1, 17]: 2.03 Log
- log reduction in the number of cfu/ml [1, 17]: 3.5 log
- survival [1, 17]: 1.8 × 10^2 cfu/ml and 1.7 × 10^2 cfu/ml
- Average Log ([1]; 14% MSM, 60 μg/ml oxacillin, 48 hours): 2.2 Log
- Average Log ([1]; 14% MSM, 60 μg/ml oxacillin, 72 hours): 1.5 Log
- Average Log [1, 18]: 4.11 Log
- survival [1, 18]: 1.35 × 10^4 cfu/ml and 1.30 × 10^4 cfu/ml and 1.29 × 10^4 cfu/ml
- Average Log [1, 19]: 3.7 Log
- survival [1, 19]: 5.0 × 10^3 cfu/ml and 4.5 × 10^3 cfu/ml and 4.6 × 10^3 cfu/ml
- Average Log ([1]; 15% MSM, 12 μg/ml oxacillin, 72 hours): 2.3 Log
- Average Log [1, 20]: 3.94 Log
- survival [1, 20]: 8.7 × 10^3 cfu/ml and 8.9 × 10^3 cfu/ml and 8.8 × 10^3 cfu/ml
- Average Log ([1]; 15% MSM, 30 μg/ml oxacillin, 48 hours): 2.8 Log
- Average Log ([1]; 15% MSM, 30 μg/ml oxacillin, 72 hours): 2.4 Log
- Average Log [1, 21]: 3.81 Log
- survival [1, 21]: 6.6 × 10^3 cfu/ml and 6.2 × 10^3 cfu/ml and 6.4 × 10^3 cfu/ml
- Average Log ([1]; 15% MSM, 60 μg/ml oxacillin, 48 hours): 2.1 Log
- Average Log [1, 22]: 3.88 Log
- survival [1, 22]: 7.6 × 10^3 cfu/ml and 7.4 × 10^3 cfu/ml
- Average Log [1, 23]: 3.7 Log
- survival [1, 23]: 4.2 × 10^3 cfu/ml and 5.0 × 10^3 cfu/ml and 4.3 × 10^3 cfu/ml
- Average Log ([1]; 16% MSM, 12 μg/ml oxacillin, 72 hours): 2.1 Log
- Average Log [1, 24]: 3.91 Log
- survival [1, 24]: 8.3 × 10^3 cfu/ml and 8.0 × 10^3 cfu/ml
- Average Log ([1]; 16% MSM, 30 μg/ml oxacillin, 48 hours): 2.6 Log
- Average Log ([1]; 16% MSM, 30 μg/ml oxacillin, 72 hours): 1.9 Log
- Average Log [1, 25]: 3.83 Log
- survival [1, 25]: 6.9 × 10^3 cfu/ml
- Average Log ([1]; 16% MSM, 60 μg/ml oxacillin, 48 hours): 1.9 Log
- Average Log ([1]; 16% MSM, 60 μg/ml oxacillin, 72 hours): 1.8 Log
- recovery of MRSA after enrichment ([2]; 11% MSM, 60 μg/ml oxacillin, 96 hours): total kill
- recovery of MRSA after enrichment ([2]; 13% MSM, 60 μg/ml oxacillin, 120 hours): total kill
- recovery of MRSA after enrichment ([2]; 14% MSM, 60 μg/ml oxacillin, 96 hours): total kill
- recovery of MRSA after enrichment ([2]; 15% MSM, 30 μg/ml oxacillin, 120 hours): total kill
- recovery of MRSA after enrichment ([2]; 15% MSM, 60 μg/ml oxacillin, 72 hours): total kill
- recovery of MRSA after enrichment ([2]; 16% MSM, 60 μg/ml oxacillin, 120 hours): total kill
- effect on survival [3]: none of the concentrations of MSM tested had any effect on the survival
- average log reduction in colony count ([4]; 30 μg/ml methicillin, lower end of MSM concentrations, 24 hours): 3 log
- log reduction in colony count ([4]; 5% MSM, 60 μg/ml methicillin, 48 hours): 4.1 log
- log reduction in colony count ([4]; 6% MSM, 12 μg/ml methicillin, 48 hours): 4.1 log
- log reduction in colony count ([4]; 6% MSM, 30 μg/ml methicillin, 24 hours): 2.8 log
- log reduction ([4]; 16% MSM, 12 μg/ml methicillin, 24 hours): 2.2 log
